Like-named read-outs stand apart in the source and are kept apart here.
Tests used:
[1] = system: mice; assay: Rotarod test; format: in vivo; conditions: 3c 5 mg/kg i.p.; control 154 ± 20 s, p = 0.137
Protocol: (§1) The ability of effective doses of bisuracil 2b (0.01 mg/kg) and bisuracil 3c (5 mg/kg) to induce incapacitation was evaluated. Locomotor activity, measured as the total distance travelled, and exploratory behaviour, assessed by the number of rearings (head inclinations) and head dips, were evaluated using the open-field test. Additionally, motor coordination was analysed using the rotarod test, where the ability of mice to stay on the rotating rod was recorded. The compounds were administered i.p. 30 min before testing, while the control group received an equivalent volume of the vehicle.
To analyse motor function, rotarod and open-field tests were carried out. Mice were randomly divided into 3 groups (n = 12): a control group of mice and groups of mice treated with tested compounds. Tests were conducted 1 h after compound exposure. To assess motor function, mice were first placed on a rotarod treadmill (Ugo Basile, Italy). Rotation speed was fixed at 15 rpm, and the time that each mouse remained on the rod was recorded as the score, with a maximum duration of 300 s per trial. Each mouse underwent 3 trials. […] To assess motor function, the distance travelled in centimetres in the arena was measured, using VideoMot2 software (Version 8.02 (131) 03-07-17 (TSE Systems, Bad Homburg, Germany).

[2] = Acute toxicity, single i.p. injection; conditions: CD-1, mouse, in vivo, ip, mice
Protocol: Toxicological experiments were performed using a single i.p. injection of the tested compounds in CD-1 mice weighing 20–25 g. Stock solutions of the tested compounds were diluted in ethanol or water. The final ethanol dose was 100 mg/kg. Nine different doses of the tested compounds were used with 12 mice per dose. Animals were observed 7 days after injection, and symptoms of toxicity were recorded.

[3] = system: scopolamine-induced amnesia in mice; assay: Novel object recognition test, scopolamine-induced amnesia; format: in vivo; conditions: scopolamine 1.5 mg/kg
Protocol: This study explored the ability of bisuracil 3c to counteract scopolamine-induced amnesia in mice, utilising behavioural assessments conducted through the novel object recognition test. […] The induction of amnesia was facilitated by the i.p. injection of scopolamine (1.5 mg/kg) 50 min prior to testing. […]. An equivalent amount of the vehicle was administered to a control group of mice.
The experiments were carried out on CD1 mice of both sexes weighing 24–25 g. The novel object recognition test was conducted over a period of three days. On the first day, the mice were placed individually into the square testing arena with black walls (50 cm in length, 50 cm in width, 38 cm in height) for 5 min without any objects. On the second day, two identical objects were placed in the central part of the arena, and the mice were allowed to explore the objects for 10 min. Test compounds were administered prior to testing on the second day. The induction of amnesia was facilitated by i.p. injection of scopolamine (1.5 mg/kg) 50 min prior to testing. Tested compounds were administered i.p. 30 min prior to testing. The control group of animals was administered with an equivalent amount of vehicle. On the third day, the mice were presented with a familiar and a novel object for 10 min. The time of exploration of each object by the mice was recorded using a digital camera. After each test, the arena was cleaned with a solution of 70% ethanol. At the end of the test, the preference index (exploration of novel object/total exploration time × 100) was calculated.

[4] = system: mice; assay: Open-field test; format: in vivo; conditions: 2b 0.01 mg/kg, 3c 5 mg/kg, i.p.
Protocol: as §1
To analyse motor function, rotarod and open-field tests were carried out. Mice were randomly divided into 3 groups (n = 12): a control group of mice and groups of mice treated with tested compounds. Tests were conducted 1 h after compound exposure. To assess motor function, mice were first placed on a rotarod treadmill (Ugo Basile, Italy). Rotation speed was fixed at 15 rpm, and the time that each mouse remained on the rod was recorded as the score, with a maximum duration of 300 s per trial. Each mouse underwent 3 trials. After recording the length of time that mice managed to remain on the rotarod (latency to fall), the average of three trials was used for further analysis. Following the rotarod test, motor function was studied in an open field apparatus (Open Science, Krasnogorsk, Russia), as described in [39]. The numbers of rearing and head dips were estimated as indexes of exploratory activity. To assess motor function, the distance travelled in centimetres in the arena was measured, using VideoMot2 software (Version 8.02 (131) 03-07-17 (TSE Systems, Bad Homburg, Germany).

CCN(CCCCCn1c(=O)ccn(CCCCCn2c(C)cc(=O)n(C)c2=O)c1=O)Cc1ccccc1C#N [3c]
mean fall time (rotarod) [1]: 170 ± 19 s
LD50 at 7 days ([2]; observed 7 days, read-out: LD50 (median lethal dose)): 22.8 mg/kg
LD50 at 7 days ([2]; read-out: LD50 95% confidence limits): 15 to 28.7 mg/kg
effect on the preference index ([3]; 3c 2 mg/kg i.p. 30 min prior to testing): no significant effect
increase in the preference for the novel object compared to the scopolamine-treated group ([3]; 3c 5 mg/kg i.p. 30 min prior to testing, p = 0.01): 30.5%
distance travelled (open field) vs control group [4]: no significant differences
number of rearings or head dips (open field) [4]: neither of the tested compounds significantly influenced
